Data: patent US12668599B2, “Heterobifunctional compounds and methods of treating disease” (Halda Therapeutics OpCo, Inc., priority 2023, dated 2026)

Assays:
[1] = Stability to storage of crystal form under relative humidity; type: physicochemical; settings: 23-25° C., 23% RH to 53% RH, one week
[2] = Stability analysis of Crystal Form A and Crystal Form B in solvent suspensions (XRPD); type: physicochemical; settings: suspensions in EtOH, Acetone, Acetonitrile, THF/Heptane at 25° C. and 50° C. for 1 week
Description: The obtained suspensions were stirred at 25° C. and 50° C. for 1 week, respectively. Solid parts (wet cakes) were isolated by centrifugation filtration at […] temperature and investigated by XRPD.

[3] = system: T-Rex 293 cell line SC3 cells having increased expression of androgen receptor protein due to exposure to doxycycline; assay: Cellular growth inhibition, T-Rex 293 SC3 cells with doxycycline-induced androgen receptor (CellTiter-Glo 2.0, 72 hours); type: cell-based; settings: GI50 of the top compound in the pair divided by GI50 of the lower compound; T-Rex 293 SC3 cells with doxycycline-induced androgen receptor
VCaP cells = assay: Cellular growth inhibition assay for VCaP cells (CellTiter-Glo 2.0, 72 hours); type: cell-based, human; settings: GI50 of the top compound in the pair divided by GI50 of the lower compound
[4] = biological target: T1, androgen receptor and BRD4 protein (Homo sapiens, UniProt O60885+P10275); assay: Tumor TR-FRET trimer assay on tumors of the PK/PD Castrate VCaP model; type: in vivo, CB17.SCID mice; settings: PK/PD Castrate VCaP Tumor Xenograft Model; Compound II-5 and Compound B at the same dose and dosing frequency, FIG. 20
T1 construct: Tumors obtained from the Castrate VCaP Model were lysed; from tissue; host or cells: VCaP tumour xenografts grown in castrated CB17.SCID mice
Description: 5M VCaP cells were subcutaneously implanted into CB17.SCID mice in 50% Matrigel (Corning). Mice were castrated under anesthesia once tumor volumes reached 100 mm^3. Tumors were then allowed to reach an average of approximately 150 mm^3 before randomization into efficacy arms. Tumors were measured twice weekly for Tumor Growth Inhibition (TGI) calculation. For PK/PD analysis, tumors were allowed to reach an average of 400 mm^3, before dosing the mice with test compound by oral gavage (n=5) for seven days. Mice were sacrificed 24 hours following the final dose, and tumors were harvested for downstream analysis. Plasma samples were collected from all dosed mice 2 hours following the final dose to determine test compound exposure by LC-MS/MS. […] the United States Food and Drug Administration for treatment of prostate cancer ([…]).
Tumors obtained from the Castrate VCaP Model were lysed in Cell Signaling Technology lysis buffer supplemented with protease/phosphatase inhibitors and nuclease. Each tumor was lysed in 10 μL of lysis buffer per mg of tumor and placed in a TissueLyser for 4 minutes at 20 Hz. Each sample was spun down at 16000×g for 10 minutes, the supernatant was removed, and a BCA assay was run to quantify the total protein concentration in each sample. In a white opaque 384 well plate each sample was diluted in supplemented CST lysis buffer to 48 and 24 μg of protein in a total volume of 16 μL. 4 μL of a 1:1 mixture of anti-androgen receptor and anti-BRD4 antibodies with donor and acceptor fluorophores were mixed into each well containing tumor samples. The plate was spun down at 300×g for one minute, placed on a plate shaker at 400 RPM for 10 minutes, spun down at 300×g for one minute, then sealed with a plate seal and stored overnight. Approximately 16 hours after adding antibodies, the plate was read on an Envision plate reader. The ratiometric value of each well was calculated by dividing the acceptor signal by the donor signal and multiplying by 10,000.

T1 sequence (P10275 whole entry, other chains not shown): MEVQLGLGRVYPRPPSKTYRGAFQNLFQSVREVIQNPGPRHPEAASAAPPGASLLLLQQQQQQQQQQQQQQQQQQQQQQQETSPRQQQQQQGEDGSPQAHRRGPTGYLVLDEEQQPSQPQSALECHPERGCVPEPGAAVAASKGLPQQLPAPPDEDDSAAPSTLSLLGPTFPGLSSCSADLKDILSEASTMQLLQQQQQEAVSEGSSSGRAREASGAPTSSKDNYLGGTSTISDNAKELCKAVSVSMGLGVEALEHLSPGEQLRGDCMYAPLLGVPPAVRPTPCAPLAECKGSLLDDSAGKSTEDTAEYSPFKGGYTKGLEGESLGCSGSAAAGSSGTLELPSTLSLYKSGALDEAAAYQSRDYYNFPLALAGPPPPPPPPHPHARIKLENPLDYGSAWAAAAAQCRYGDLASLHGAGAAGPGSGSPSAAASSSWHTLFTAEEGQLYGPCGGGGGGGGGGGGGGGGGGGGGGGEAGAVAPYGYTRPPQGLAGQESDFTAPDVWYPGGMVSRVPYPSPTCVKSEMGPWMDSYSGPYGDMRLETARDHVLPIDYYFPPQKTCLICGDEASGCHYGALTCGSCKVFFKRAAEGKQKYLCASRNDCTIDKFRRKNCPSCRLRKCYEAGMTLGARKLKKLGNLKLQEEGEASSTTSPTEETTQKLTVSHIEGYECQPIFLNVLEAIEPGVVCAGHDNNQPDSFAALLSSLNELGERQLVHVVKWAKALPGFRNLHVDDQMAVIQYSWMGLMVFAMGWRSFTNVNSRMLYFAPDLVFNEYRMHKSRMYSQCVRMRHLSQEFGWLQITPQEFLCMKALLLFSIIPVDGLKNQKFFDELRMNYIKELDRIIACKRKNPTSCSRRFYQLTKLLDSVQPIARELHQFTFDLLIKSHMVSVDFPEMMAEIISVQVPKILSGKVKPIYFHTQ

Ratio of GI50's (VCaP cells)	ternary complex formation between compound, androgen receptor, and BRD4 protein in tumors [4]	SMILES	physical stability of crystalline form on storage [1]	relative stability of crystal forms [2]	Ratio of GI50's [3]
		COc1cc(O[C@H]2C(C)(C)[C@H](NC(=O)c3cnc(N4CCC5(CC4)CC(Oc4ccc(C6=N[C@@H](Cc7ncco7)c7nnc(C)n7-c7sc(C)c(C)c76)cc4)C5)nc3)C2(C)C)ccc1C#N [Compound II-5 in Crystal Form A, N-[(1r,3r)-3-(4-cyano-3-methoxy-phenoxy)-2,2,4,4-tetramethyl-cyclobutyl]-2-[2-[4-[(9S)-4,5,13-trimethyl-9-(oxazol-2-ylmethyl)-3-thia-1,8,11,12-tetrazatricyclo[8.3.0.0^2,6]trideca-2 (6),4,7,10,12-pentaen-7-yl]phenoxy]-7-azaspiro[3.5]nonan-7-yl]pyrimidine-5-carboxamide Crystal Form A]	no change in crystalline form was observed	superior stability	
1.3	observed	Cc1sc2c(c1C)C(c1ccc(OC3CC4(CCN(c5ncc(C(=O)N[C@H]6C(C)(C)[C@H](Oc7ccc(C#N)c(Cl)c7)C6(C)C)cn5)CC4)C3)cc1)=N[C@@H](Cc1ncco1)c1nnc(C)n1-2 [B, reference compound]			5.3
